Source: US9204646B2, “Pyrazole tetrahydronaphthyl carboxamides” (BAYER CROPSCIENCE AG, priority 2012, dated 2015)
Where two headings read alike, the source gives them in different places.

Tests used:
[1] = Measurement of log P values by HPLC on reversed phase columns (EEC directive 79/831 Annex V.A8); format: physicochemical; conditions: for logP: Table 1 active ingredients
Alternaria brassicae = experiment: In vivo preventive test on Alternaria brassicae (leaf spot on radish); conditions: preventive spray on radish plants, grading 6 days after contamination vs control plants
Description: Radish plants (“Pernod Clair” variety), sown in starter cups on a 50/50 peat soil-pozzolana substrate and grown at 17° C., are treated at the cotyledon stage by spraying with the active ingredient prepared as described above. Plants, used as controls, are treated with the mixture of acetone/tween/DMSO/water not containing the active material. After 24 hours, the plants are contaminated by spraying the cotyledons with an aqueous suspension of Alternaria brassicae spores (50 000 spores per ml). The spores are collected from a 15-day-old culture. The contaminated radish plants are incubated at 20° C. and at 100% relative humidity. Grading (% of efficacy) is carried out 6 days after the contamination, in comparison with the control plants.

Pyrenophora teres = experiment: In vivo preventive test on Pyrenophora teres (net blotch on barley); conditions: preventive spray on barley plants, grading 14 days after contamination vs control plants
Description: Barley plants (“Plaisant” variety), sown in starter cups on a 50/50 peat soil-pozzolana substrate and grown at 22° C., are treated at the 1-leaf stage (10 cm height) by spraying with the active ingredient prepared as described above. Plants, used as controls, are treated with the mixture of acetone/tween/DMSO/water not containing the active material. After 24 hours, the plants are contaminated by spraying the leaves with an aqueous suspension of Pyrenophora teres spores (12 000 spores per ml). The spores are collected from a 12-day-old culture. The contaminated barley plants are incubated for 48 hours at 20° C. and at 100% relative humidity, and then for 12 days at 20° C. at 70-80% relative humidity. Grading (% of efficacy) is carried out 14 days after the contamination, in comparison with the control plants.

Uromyces appendiculatus = experiment: In vivo preventive test on Uromyces appendiculatus (bean rust); conditions: preventive spray on bean plants, grading 11 days after contamination vs control plants
Description: Bean plants (“Saxa” variety), sown in starter cups on a 50/50 peat soil-pozzolana substrate and grown at 24° C., are treated at the 2-leaf stage (9 cm height) by spraying with the active ingredient prepared as described above. Plants, used as controls, are treated with the mixture of acetone/tween/DMSO/water not containing the active material. After 24 hours, the plants are contaminated by spraying the leaves with an aqueous suspension of Uromyces appendiculatus spores (150 000 spores per ml). […] The contaminated bean plants are incubated for 24 hours at 20° C. and at 100% relative humidity, and then for 10 days at 20° C. and at 70-80% relative humidity. Grading (% of efficacy) is carried out 11 days after the contamination, in comparison with the control plants.

Sphaerotheca fuliginea = experiment: In vivo preventive test on Sphaerotheca fuliginea (powdery mildew on cucurbits); conditions: preventive spray on gherkin plants, grading 12 days after contamination vs control plants
Description: Gherkin plants (“Vert petit de Paris” variety), sown in starter cups on a 50/50 peat soil-pozzolana substrate and grown at 24° C., are treated at the Z11 cotyledon stage by spraying with the active ingredient prepared as described above. Plants, used as controls, are treated with the mixture of acetone/tween/DMSO/water not containing the active material. After 24 hours, the plants are contaminated by spraying the cotyledons with an aqueous suspension of Sphaerotheca fuliginea spores (100 000 spores per ml). The spores are collected from infected plants. The contaminated gherkin plants are incubated at about 20° C. and at 70-80% relative humidity. Grading (% of efficacy) is carried out 12 days after the contamination, in comparison with the control plants.

Puccinia recondita = experiment: In vivo preventive test on Puccinia recondita (brown rust on wheat); conditions: preventive spray on wheat plants, grading 12 days after contamination vs control plants
Description: Wheat plants (“Scipion” variety), sown in starter cups on a 50/50 peat soil-pozzolana substrate and grown at 22° C., are treated at the 1-leaf stage (10 cm height) by spraying with the active ingredient prepared as described above. Plants, used as controls, are treated with the mixture of acetone/tween/DMSO/water not containing the active material. After 24 hours, the plants are contaminated by spraying the leaves with an aqueous suspension of Puccinia recondita spores (100 000 spores per ml). […] The contaminated wheat plants are incubated for 24 hours at 20° C. and at 100% relative humidity, and then for 10 days at 20° C. and at 70-80% relative humidity. Grading (% of efficacy) is carried out 12 days after the contamination, in comparison with the control plants.

Septoria tritici = experiment: In vivo preventive test on Septoria tritici (leaf spot on wheat); conditions: dose of 500 ppm; preventive spray on wheat plants; grading 24 days after contamination vs control plants
Description: Wheat plants (“Scipion” variety), sown in starter cups on a 50/50 peat soil-pozzolana substrate and grown at 22° C., are treated at the 1-leaf stage (10 cm height) by spraying with the active ingredient prepared as described above. Plants, used as controls, are treated with the mixture of acetone/tween/DMSO/water not containing the active material. After 24 hours, the plants are contaminated by spraying the leaves with an aqueous suspension of cryopreserved Septoria tritici spores (500 000 spores per ml). The contaminated wheat plants are incubated for 72 hours at 18° C. and at 100% relative humidity, and then for 21 days at 90% relative humidity. Grading (% of efficacy) is carried out 24 days after the contamination, in comparison with the control plants.

Botrytis cinerea = experiment: In vivo preventive test on Botrytis cinerea (grey mould); conditions: preventive spray on gherkin plants, grading 4 to 5 days after contamination vs control plants
Description: Gherkin plants (“Vert petit de Paris” variety), sown in starter cups on a 50/50 peat soil-pozzolana substrate and grown at 24° C., are treated at the Z11 cotyledon stage by spraying with the active ingredient prepared as described above. Plants, used as controls, are treated with the mixture of acetone/tween/DMSO/water not containing the active material. After 24 hours, the plants are contaminated by spraying the cotyledons with an aqueous suspension of cryopreserved Botrytis cinerea spores (50 000 spores per ml). The spores are suspended in a nutrient solution composed of 10 g/L of PDB, 50 g/L of D-Fructose, 2 g/L of NH4NO3 and 1 g/L of KH2PO4. The contaminated gherkin plants are incubated at 17° C. and at 90% relative humidity. Grading (% of efficacy) is carried out 4 to 5 days after the contamination, in comparison with the control plants.

[2] = method [a]: LC-MS at pH 2.7, 0.1% formic acid in water / acetonitrile, linear gradient 10% to 95% acetonitrile
[3] = reversed phase HPLC column, method [a]: LC-MS at pH 2.7, 0.1% formic acid in water / acetonitrile, linear gradient 10% to 95% acetonitrile, Table 2 intermediates of formula (III-a), read-out: logP

Row | Compound | logP [1, 2] | Eff. % (Alternaria brassicae; dose of 500 ppm) | Eff. % (Uromyces appendiculatus; dose of 500 ppm) | Eff. % (Puccinia recondita; dose of 500 ppm) | other results
1 | CON=C1CCCc2c(NC(=O)c3c(C(F)F)nn(C)c3Br)cccc21 [Example 26] | 3.13[a] |  |  |  | 
2 | CC1(C)CCCc2c(N)cccc21 [III-a-1, 5,5-dimethyl-5,6,7,8-tetrahydronaphthalen-1-amine] |  |  |  |  | chromatographic logP [1, 3]: 1.69
3 | CCON=C1CCCc2c(NC(=O)c3c(C(F)F)nn(C)c3F)cccc21 [Example 18] | 3.31[a] | 83% | 81% |  | Eff. % (Pyrenophora teres; dose of 500 ppm): 92%
4 | Cn1nc(C(F)F)c(C(=O)Nc2cccc3c2CC(C)(C)CC3)c1F [Example 13] | 3.72[a] |  | 100% | 97% | Eff. % (Sphaerotheca fuliginea; dose of 500 ppm): 98%; Eff. % (Pyrenophora teres; dose of 500 ppm): 75%; Eff. % (Septoria tritici): 95%
5 | Cn1nc(C(F)F)c(C(=O)Nc2ccc(F)c3c2CCCC3(C)C)c1Cl [Example 16] | 4.01[a] |  | 100% | 97% | 
6 | CC1c2cccc(NC(=O)c3c(C(F)F)nn(C)c3Cl)c2CCC1(C)C (racemic) [Example 11] | 4.39[a] |  | 100% | 98% | 
7 | Cn1nc(C(F)F)c(C(=O)Nc2cccc3c2CCC(C)(C)C3)c1Br [Example 23] | 4.04[a] |  | 96% | 79% | 
8 | CCON=C1CCCc2c(NC(=O)c3c(C(F)F)nn(C)c3Br)cccc21 [Example 20] | 3.57[a] |  |  |  | 
9 | Cn1nc(C(F)F)c(C(=S)Nc2ccc(F)c3c2CCCC3(C)C)c1Cl [Example 17] | 4.24[a] |  | 100% | 100% | 
10 | CCON=C1CCCc2c(NC(=O)c3c(C(F)F)nn(C)c3Cl)cccc21 [Example 21] | 3.55[a] |  |  | 94% | Eff. % (Pyrenophora teres; dose of 500 ppm): 75%
11 | CC1CCc2c(NC(=O)c3c(C(F)F)nn(C)c3Cl)cccc2C1(C)C (racemic) [Example 15] | 4.29[a] |  | 95% | 98% | Eff. % (Sphaerotheca fuliginea; dose of 500 ppm): 70%; Eff. % (Septoria tritici): 75%
12 | CC1CCC(C)(C)c2cccc(NC(=O)c3c(C(F)F)nn(C)c3F)c21 (racemic) [Example 3] | 3.92[a] | 93% | 100% | 94% | Eff. % (Botrytis cinerea; dose of 500 ppm): 100%
13 | CC1CCc2c(NC(=O)c3c(C(F)F)nn(C)c3F)cccc2C1C (centres unmarked) [Example 8] | 3.83[a] | 97% | 99% | 100% | Eff. % (Sphaerotheca fuliginea; dose of 500 ppm): 85%; Eff. % (Pyrenophora teres; dose of 500 ppm): 71%
14 | CC1CCc2c(NC(=O)c3c(C(F)F)nn(C)c3Cl)cccc2C1C (centres unmarked) [Example 7] | 4.09[a] | 97% | 100% | 100% | 
15 | Cn1nc(C(F)F)c(C(=S)Nc2cccc3c2CCC(C)(C)C3)c1Cl [Example 33, 5-chloro-3-(difluoromethyl)-N-(6,6-dimethyl-5,6,7,8-tetrahydronaphthalen-1-yl)-1-methyl-1H-pyrazole-4-carbothioamide] |  |  |  |  | Eff. % (Alternaria brassicae; dose of 100 ppm): 75%; Eff. % (Puccinia recondita; dose of 100 ppm): 94%; chromatographic logP ([1]; pH 2.7): 4.11; Eff. % (Uromyces appendiculatus; dose of 100 ppm): 99%
16 | Cn1nc(C(F)F)c(C(=O)Nc2ccc(F)c3c2CCCC3(C)C)c1F [Example 24] | 3.76[a] | 75% | 100% | 97% | 
17 | Cn1nc(C(F)F)c(C(=O)Nc2cccc3c2CC(C)(C)CC3)c1Cl [Example 14] | 3.9[a] | 71% | 99% | 100% | Eff. % (Sphaerotheca fuliginea; dose of 500 ppm): 98%; Eff. % (Pyrenophora teres; dose of 500 ppm): 97%; Eff. % (Septoria tritici): 90%
18 | CC1(C)CCc2c(N)cccc2C1 [III-a-12, 6,6-dimethyl-5,6,7,8-tetrahydronaphthalen-1-amine] |  |  |  |  | chromatographic logP [1, 3]: 1.86
19 | CC1CCC(C)(C)c2cccc(NC(=O)c3c(C(F)F)nn(C)c3Cl)c21 (racemic) [Example 4] | 4.14[a] | 92% | 99% | 94% | 
20 | CON=C1CCCc2c(NC(=O)c3c(C(F)F)nn(C)c3F)cccc21 [Example 19] | 2.86[a] | 96% |  |  | Eff. % (Botrytis cinerea; dose of 500 ppm): 96%
21 | C=C1c2cccc(NC(=O)c3c(C(F)F)nn(C)c3Cl)c2CCC1(C)C [Example 5] | 4.14[a] |  | 100% | 94% | Eff. % (Botrytis cinerea; dose of 500 ppm): 93%

Continued, in another order:

Row | logP [1, 2] | Compound | Eff. % (Alternaria brassicae; dose of 500 ppm) | Eff. % (Uromyces appendiculatus; dose of 500 ppm) | Eff. % (Puccinia recondita; dose of 500 ppm) | other results
22 | 3.69[a] | Cn1nc(C(F)F)c(C(=O)Nc2cccc3c2C(C)(C)CCC3)c1Cl [Example 27] |  |  |  | 
23 | 3.09[a] | CON=C1CCCc2c(NC(=O)c3c(C(F)F)nn(C)c3Cl)cccc21 [Example 28] |  |  |  | 
24 | 4.11[a] | Cn1nc(C(F)F)c(C(=S)Nc2cccc3c2CCC(C)(C)C3)c1Br [Example 31] |  |  |  | 
25 | 3.99[a] | Cn1nc(C(F)F)c(C(=S)Nc2cccc3c2CCC(C)(C)C3)c1F [Example 32] |  |  |  | Eff. % (Alternaria brassicae; dose of 100 ppm): 75%; Eff. % (Sphaerotheca fuliginea; dose of 100 ppm): 98%; Eff. % (Botrytis cinerea; dose of 100 ppm): 73%; Eff. % (Puccinia recondita; dose of 100 ppm): 94%; Eff. % (Pyrenophora teres; dose of 100 ppm): 83%; Eff. % (Uromyces appendiculatus; dose of 100 ppm): 97%
26 | 3.44[a] | Cn1nc(C(F)F)c(C(=O)Nc2cccc3c2C(C)(C)CCC3)c1F [Example 29] |  |  |  | 
